Reference: patent publication EP2698155A1, “Pharmaceutical unit dosage form comprising 4-phenylbutyric acid” (priority 2012, dated 2014)

Test system: adenocarcinoma of the prostate
Assay: Treatment of human patients with prostate cancer (case reports)
Format: in vivo
Details: general statement
Description: Diseases that can be beneficially influenced by the present dosage form include in particular benign prostate hyperplasy, cancer, leukemias, cystic fibrosis, AIDS, kidney and liver diseases, thalassemia and urea cycle disorders. For example, the treatment of an adenocarcinoma of the prostate can be carried out by administering twice daily, e.g. in the morning and evening, a pharmaceutical tablet formulation containing 250 mg of sodium 4-phenylbutyrate. […] Treatment may be continued for several month or years until a satisfactory effect is observed or the patient is total free of the disease.
Following are descriptions of treatments and test results obtained from human patients.
Because of progressive bone pain they underwent bilateral orchiectomy in February 1996. They became free of pain until November 1998 when they again suffered bone pain mainly in their back. They were than treated orally twice daily with 250 mg of sodium phenylbutyrate retard tablets according to Example 1. Four weeks later they were free of pain. They stayed on this medication until June 2001 without any other symptoms of the prostate carcinoma. The PSA and the alkaline phosphatase were always within normal limits.
They stay now in complete unmaintained remission for 12 months.
This patient presented in March 1997 with a pathological fracture of the 8th thoracic vertebra caused by metastatic destruction. […]

With O=C([O-])CCCc1ccccc1.[Na+] [sodium 4-phenylbutyrate] the “therapeutic effect (pain)” value (adenocarcinoma of the prostate, tablet with 250 mg twice daily, after treatment of about one month) was “pain disappears” and the side effects (over a long period of treatment) was “no side effects”.
